Patent US10555987B2, “GHRH agonists for the treatment of ischemic disorders” (UNIVERSITY OF MIAMI, priority 2012, dated 2020)
Marks after values point to notes of the source that are not given here. Non-standard residues stand in square brackets, D forms with d. Residues, ends and D or L forms follow the SMILES beside them. *: point of attachment. Desaminotyrosyl = O=C(CCc1ccc(O)cc1)*; NMeY = CN[C@@H](Cc1ccc(O)cc1)C(=O)O; Nle = CCCC[C@H](N)C(=O)O; Orn = NCCC[C@H](N)C(=O)O; Abu = CC[C@H](N)C(=O)O

Tests used:
GH release = assay: GH releasing potency in vivo, subcutaneous administration (Example 14, Table 12); parameters: species or system rat; conditions: s.c.; for Serum GH level at selected time after injection (ng/ml), 0 min / Serum GH level at selected time after injection (ng/ml), 15 min / Serum GH level at selected time after injection (ng/ml), 30 min: male rats, dose 3 μg/kg, mean ± SEM
Description: Male Sprague-Dawley rats, weighing 200-250 g, were purchased from Charles River Laboratory (Wilmington, Mass.) and used for experiments. All animal procedures were approved by the Veterans Affairs Animal Care and Use Committee and were conducted in accordance with additional institutional guidelines as well. Briefly, groups of 5-6 animals were used in each experiment. The rats were anesthetized with 50 mg/kg of sodium pentobarbital (Nembutal, Lundbeck Inc., Deerfield, Ill.). Twenty min after inducing anesthesia, GHRH(1-29)NH2, JI-38, or new analogs were injected into the animals intravenously (i.v.) or subcutaneously (s.c.). The peptides were dissolved in 0.01 M acetic acid to get 1 μg/μl stock solution, and then diluted with 5% mannitol. Control rats received 5% mannitol only. Blood samples were collected from the jugular vein at selected times and were used for serum preparation. Concentrations of GH in rat sera were determined by ELISA. The relative potencies of tested peptides were calculated using GHRH(1-29)NH2 and JI-38 for comparison, whose potency was defined as 1. The equivalent dosage of GHRH(1-29)NH2 to reach the same level of serum growth hormone release after injection of the specific tested peptide was determined from a GHRH(1-29)NH2 standard curve using Origin 6.0 software. […] Serum GH was determined using the rat Growth Hormone ELISA kit (ALPCO Diagnostics, Mill Valley, Calif.) according to the manufacturer's instruction. Absorbance at 405 nm was measured by a Victor 3 Multi-label Counter (Perkin-Elmer, Waltham, Md.).

GHRH receptor [1] = target: T1, GHRH receptor (Homo sapiens, UniProt Q02643); assay: Receptor binding in vitro, 125I-labeled [His1,Nle27]-hGHRH(1-32)NH2, membrane receptors of human anterior pituitary cells (Table 14); conditions: for Relative affinity (Binding potency) compared to JI-38: JI-38 = 1; for Relative affinity (Binding potency) compared to hGHRH(1-29): hGHRH(1-29)NH2 = 1
T1 sequence (Q02643 23-423): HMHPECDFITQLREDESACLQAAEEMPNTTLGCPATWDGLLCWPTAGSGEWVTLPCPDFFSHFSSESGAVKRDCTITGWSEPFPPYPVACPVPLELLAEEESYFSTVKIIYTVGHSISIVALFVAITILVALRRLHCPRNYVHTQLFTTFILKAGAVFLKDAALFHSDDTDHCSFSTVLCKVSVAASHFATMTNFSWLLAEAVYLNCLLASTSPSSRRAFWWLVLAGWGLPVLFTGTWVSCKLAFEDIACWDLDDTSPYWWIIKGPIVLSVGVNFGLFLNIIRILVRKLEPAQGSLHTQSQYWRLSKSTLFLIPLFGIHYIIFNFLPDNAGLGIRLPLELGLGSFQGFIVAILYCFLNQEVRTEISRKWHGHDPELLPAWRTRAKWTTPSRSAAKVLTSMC
Description: Normal human pituitary was purchased from the National Hormone and Peptide Program (UCLA Medical Center, Torrance, Calif.).

GHRH receptor [2] = target: T1, GHRH receptor; assay: GHRH receptor binding, competition with 125I-labeled JV-1-42, human pituitary membrane homogenates (Table 7); parameters: Normal human pituitaries were purchased from the National Hormone and Peptide Program; tissue National Hormone and Peptide Program (A.F. Parlow, Harbor-UCLA Medical Center, Torrance, Calif.); host or cells: normal human pituitary, membrane fraction; conditions: for Relative affinity (Binding potency) vs JI-38: JI-38 = 1, Table 7
Description: Normal human pituitaries were purchased from the National Hormone and Peptide Program (A.F. Parlow, Los Angeles, County Harbor-UCLA Medical Center, Torrance, Calif.).

Compound	Serum GH level at selected time after injection (ng/ml), 0 min (GH release) [ng/mL]	Serum GH level at selected time after injection (ng/ml), 15 min (GH release) [ng/mL]	Serum GH level at selected time after injection (ng/ml), 30 min (GH release) [ng/mL]	GH-releasing potency after s.c. administration (in words) (GH release)	Relative potency compared to GHRH(1-29), 15 min (GH release)	Relative potency compared to JI-38, 15 min (GH release)	Relative potency compared to GHRH(1-29), 30 min (GH release)	Relative potency compared to JI-38, 30 min (GH release)	Relative affinity (Binding potency) compared to JI-38 (GHRH receptor [1])	Relative affinity (Binding potency) compared to hGHRH(1-29) (GHRH receptor [1])	Relative affinity (Binding potency) vs JI-38 (GHRH receptor [2])	IC50 (GHRH receptor [2]; 125I-JV-1-42, human pituitary membranes, Table 7) [pM]
CCCC[C@H](NC(=O)[C@@H](NC(=O)[C@H](CC(=O)O)NC(=O)[C@H](CCC(N)=O)NC(=O)[C@H](CC(C)C)NC(=O)[C@H](CC(C)C)NC(=O)[C@H](CCCN)NC(=O)[C@H](CCCNC(=N)N)NC(=O)[C@H](C)NC(=O)[C@H](CO)NC(=O)[C@H](CC(C)C)NC(=O)[C@H](CCC(N)=O)NC(=O)[C@H](CC)NC(=O)[C@H](CC(C)C)NC(=O)[C@@H](NC(=O)[C@H](CCCN)NC(=O)[C@H](CCCNC(=N)N)NC(=O)[C@H](Cc1ccc(O)cc1)NC(=O)[C@H](CO)NC(=O)[C@@H](NC(=O)[C@@H](NC(=O)[C@H](Cc1ccccc1)NC(=O)[C@@H](NC(=O)[C@H](C)NC(=O)[C@H](CC(=O)O)NC(=O)[C@@H](C)NC(=O)[C@H](Cc1ccc(O)cc1)NC)[C@@H](C)CC)[C@@H](C)O)[C@@H](C)O)C(C)C)[C@@H](C)CC)C(=O)N[C@@H](CC(=O)O)C(=O)N[C@@H](CCCNC(=N)N)C(=O)NC [Peptide P-27410, [N—Me-Tyr^1, D-Ala^2, Thr^8, Orn^12, Abu^15, Orn^21, Nle^27, Asp^28]hGHRH (1-29)NH—CH3] (H-[NMeY][dA]DAIFTTSYR[Orn]VL[Abu]QLSAR[Orn]LLQDI[Nle]DR-NHMe)	34.1 ± 1.2	334.0 ± 54.0	250.4 ± 28.6	significantly higher potencies at 30 minutes than at 15 minutes	102.5	1.58	363.2	3.25*	2.14	5.98	5.24	–
CCCC[C@H](NC(=O)[C@@H](NC(=O)[C@H](CC(=O)O)NC(=O)[C@H](CCC(N)=O)NC(=O)[C@H](CC(C)C)NC(=O)[C@H](CC(C)C)NC(=O)[C@H](CCCN)NC(=O)[C@H](CCCNC(=N)N)NC(=O)[C@H](C)NC(=O)[C@H](CO)NC(=O)[C@H](CC(C)C)NC(=O)[C@H](CCC(N)=O)NC(=O)[C@H](CC)NC(=O)[C@H](CC(C)C)NC(=O)[C@@H](NC(=O)[C@H](CCCN)NC(=O)[C@H](CCCNC(=N)N)NC(=O)[C@H](Cc1ccc(O)cc1)NC(=O)[C@H](CO)NC(=O)[C@H](CC(N)=O)NC(=O)[C@@H](NC(=O)[C@H](Cc1ccccc1)NC(=O)[C@@H](NC(=O)[C@H](C)NC(=O)[C@H](CC(=O)O)NC(=O)[C@@H](C)NC(=O)[C@H](Cc1ccc(O)cc1)NC)[C@@H](C)CC)[C@@H](C)O)C(C)C)[C@@H](C)CC)C(=O)N[C@@H](CC(=O)O)C(=O)N[C@@H](CCCNC(=N)N)C(=O)NCC [Peptide P-28421, [N—Me-Tyr^1, D-Ala^2, Orn^12, Abu^15, Orn^21, Nle^27, Asp^28]hGHRH(1-29) NH—CH2—CH3] (H-[NMeY][dA]DAIFTNSYR[Orn]VL[Abu]QLSAR[Orn]LLQDI[Nle]DR-NHEt)	44.0 ± 8.9	252.4 ± 33.3	137.3 ± 17.5	–	71.2	1.13	125.4	1.12	0.90	2.50	2.96	–
CCCC[C@H](NC(=O)[C@@H](NC(=O)[C@H](CC(=O)O)NC(=O)[C@H](CCC(N)=O)NC(=O)[C@H](CC(C)C)NC(=O)[C@H](CC(C)C)NC(=O)[C@H](CCCN)NC(=O)[C@H](CCCNC(=N)N)NC(=O)[C@H](C)NC(=O)[C@H](CO)NC(=O)[C@H](CC(C)C)NC(=O)[C@H](CCC(N)=O)NC(=O)[C@H](CC)NC(=O)[C@H](CC(C)C)NC(=O)[C@@H](NC(=O)[C@H](CCCN)NC(=O)[C@H](CCCNC(=N)N)NC(=O)[C@H](Cc1ccc(O)cc1)NC(=O)[C@H](CO)NC(=O)[C@H](CCC(N)=O)NC(=O)[C@@H](NC(=O)[C@H](Cc1ccccc1)NC(=O)[C@@H](NC(=O)[C@H](C)NC(=O)[C@H](CC(=O)O)NC(=O)[C@@H](C)NC(=O)CCc1ccc(O)cc1)[C@@H](C)CC)[C@@H](C)O)C(C)C)[C@@H](C)CC)C(=O)N[C@@H](CC(=O)O)C(=O)N[C@@H](CCCNC(=N)N)C(=O)NC [Peptide P-27408, [Dat^1, D-Ala^2, Gln^8, Orn^12, Abu^15, Orn^21, Nle^27, Asp^28]hGHRH(1-30)NH—CH3] (Desaminotyrosyl-[dA]DAIFTQSYR[Orn]VL[Abu]QLSAR[Orn]LLQDI[Nle]DR-NHMe)	37.6 ± 15.5	213.3 ± 32.0	121.2 ± 8.4	–	57.2	0.91	100.5	0.90	0.53	1.21	7.91	550
CCCC[C@H](NC(=O)[C@@H](NC(=O)[C@H](CC(=O)O)NC(=O)[C@H](CCC(N)=O)NC(=O)[C@H](CC(C)C)NC(=O)[C@H](CC(C)C)NC(=O)[C@H](CCCN)NC(=O)[C@H](CCCNC(=N)N)NC(=O)[C@H](C)NC(=O)[C@H](CO)NC(=O)[C@H](CC(C)C)NC(=O)[C@H](CCC(N)=O)NC(=O)[C@H](CC)NC(=O)[C@H](CC(C)C)NC(=O)[C@@H](NC(=O)[C@H](CCCN)NC(=O)[C@H](CCCNC(=N)N)NC(=O)[C@H](Cc1ccc(O)cc1)NC(=O)[C@H](CO)NC(=O)[C@H](CCC(N)=O)NC(=O)[C@@H](NC(=O)[C@H](Cc1ccccc1)NC(=O)[C@@H](NC(=O)[C@H](C)NC(=O)[C@H](CC(=O)O)NC(=O)[C@@H](C)NC(=O)[C@H](Cc1ccc(O)cc1)NC)[C@@H](C)CC)[C@@H](C)O)C(C)C)[C@@H](C)CC)C(=O)N[C@@H](CC(=O)O)C(=O)N[C@@H](CCCNC(=N)N)C(=O)NCC [Peptide P-28420, [N—Me-Tyr^1, D-Ala^2, Gln^8, Orn^12, Abu^15, Orn^21, Nle^27, Asp^28]hGHRH(1-29)NH—CH2—CH3] (H-[NMeY][dA]DAIFTQSYR[Orn]VL[Abu]QLSAR[Orn]LLQDI[Nle]DR-NHEt)	35.5 ± 7.6	256.2 ± 46.0	126.1 ± 15.8	–	72.6	1.15	107.8	0.96	1.01	2.83	8.37	–
